For this assay, the system named is apoptosis-related proteins. Description: Expression of apoptosis-related proteins in treated tumors (IHC, immunoblot). To be noted: treated tumors vs PBS/DMSO. It counts as in vivo, human U-87MG in nude mice. From the text: Red color indicates PI nuclear staining and green color TUNEL staining. B. Representative sections from PBS/DMSO- and peptide-TTs IHC stained for p53, Cyto c, AIF, Caspase 3 and Smac/Diablo and then hematoxylin-stained and visualized by microscopy. C. Tissue lysates obtained from controls and several Tf-D-LP4-TTs were immunoblotted for p53, Caspase 8, Cyto c, Smac/Diablo, Caspase 3 and Bcl-2. D. Quantitative analysis of immunoblots is shown (n=2-4).
Formalin-fixed, paraffin-embedded sections of control and peptide-TTs were hematoxylin-eosin stained, probed with appropriate antibodies via IHC staining or immunoblotting of cells and tissue extracts. […]
HBSS solution. Cells or tumor tissue were lysed using lysis buffer (50 mM Tris-HCl, pH 7.5, 150 mM NaCl, 1
Xenograft and intracranial-orthotopic mouse mM EDTA, 1.5 mM MgCl2, 10% glycerol, 1% Triton models X-100, supplemented with a protease inhibitor cocktail
(Calbiochem, UK). Cell lysates were then centrifuged at U-87MG glioblastoma cells (3 x106) were inoculated 600xg (10 min at 4°C) and samples (10-40 μg of protein) s.c. into the hind leg ﬂanks of athymic eight-week old were subjected to SDS-PAGE and immunoblotting male nude mice (Envigo). Thirteen days post-inoculation, using various primary antibodies (sources and dilutions tumor volume was measured and calculated (100-130 as detailed in supplementary Table 2), followed by mm3) and mice were randomized into three groups (5 the appropriate HRP-conjugated secondary antibodies mice/group). Each treatment substance was injected into (i.e., anti-mouse, anti-rabbit or anti-goat). Blots the established s,c. tumors using PBS containing 0.26% were developed using enhanced chemiluminescence DMSO or peptide in PBS, 0.26% DMSO/20 μM). The (Biological Industries). Band intensities were analyzed xenografts were injected 20 µl per tumor (2 points) every by densitometry using Multi Gauge software (Fujifilm) two days. Beginning on the day of inoculation, mouse and the values were normalized to the intensities of the weight and tumor volume were monitored twice a week appropriate β-actin signal that served as a loading control. for a period of 23 days using a digital caliper. At the end of the experiments, the mice were sacrificed, tumors were IHC of tumor tissue sections excised and ex vivo weight was determined. Half of each tumor was either fixed in 4% buffered formaldehyde, IHC staining was performed on 5 μm-thick paraffin-embedded and processed for IHC or frozen in formalin-fixed and paraffin-embedded tumor tissue liquid nitrogen for later immunoblot analysis. sections. The sections were deparaffinized by placing To generate an intracranial-orthotopic mouse model, the slides at 60°C for 1 h and using xylene. […]
(Stoelting, Wood Dale, IL). A middle incision was made c, cytochrome c oxidase subunit IVc, GAPDH, Glut1, on the skull and a burr hole was introduced 0.5 mm HK-II, Klf4, LDH, Nestin, NGFR, P53, SMAC/Diablo, anterior to the bregma and 2.5 mm lateral to the midline Sox2, S100b, VDAC1) was performed in 0.01 M citrate using a drill (Stoelting). A 31-gauge needle loaded with buffer (pH 6.0). For CD31, HK-I and Ki-67, antigen 10 µL PBS was used to deliver tumor cells. The needle retrieval was performed in 10 mM Tris-EDTA (pH 9) and tip was inserted into the brain 3 mm deep, relative to the 0.5 M Tris (pH 10), for 30 minutes each at 95-98°C. After skull surface, and maintained at this depth for 2 minutes washing sections in PBS containing 0.1% Triton-X100 before injection of tumor cells. Under sterile conditions, (pH 7.4), non-specific antibody binding was reduced by a 3 µL solution containing U-87MG (8×104) cells was incubating the sections in 10% normal goat serum for 2 injected into the brain parenchyma over a period of […]. After decanting excess serum, sections were incubated
(1 picture or pasted object on this page, not shown here)

Molecules are shown by their SMILES. Some results are limits rather than exact numbers.

The record followed here is article PMC5458211, “Mitochondrial VDAC1-based peptides: Attacking oncogenic properties in glioblastoma” (Oncotarget, 2017).

On to `CC[C@H](C)[C@H](NC(=O)[C@H](C)NC(=O)[C@@H](N)Cc1c[nH]cn1)C(=O)N[C@@H](Cc1ccc(O)cc1)C(=O)N1CCC[C@H]1C(=O)N[C@@H](CCCNC(=N)N)C(=O)N[C@@H](Cc1c[nH]cn1)C(=O)N[C@@H](CO)C(=O)N[C@@H](Cc1c[nH]c2ccccc12)C(=O)N[C@H](C(=O)N[C@@H](Cc1c[nH]c2ccccc12)C(=O)N[C@@H](CCC(=O)O)C(=O)N[C@H](CCCCN)C(=O)N[C@H](CCCCN)C(=O)N[C@H](CC(C)C)C(=O)N[C@H](CCC(=O)O)C(=O)N[C@@H](C(=O)N[C@H](C)C(=O)N[C@@H](C(=O)N[C@H](CC(N)=O)C(=O)N[C@H](CC(C)C)C(=O)N[C@H](C)C(=O)N[C@H](Cc1c[nH]c2ccccc12)C(=O)N[C@@H](C(=O)N[C@H](C)C(=O)NCC(=O)N[C@H](CC(N)=O)C(=O)N[C@H](CO)C(=O)N[C@H](CC(N)=O)C(=O)N[C@@H](CCCCN)C(=O)N[C@@H](Cc1c[nH]c2ccccc12)C(=O)N[C@H](C(=O)N[C@@H](Cc1c[nH]c2ccccc12)C(=O)N[C@@H](CCCCN)C(=O)O)[C@@H](C)O)[C@H](C)O)C(C)C)[C@H](C)O)[C@@H](C)O` [Tf-D-LP4], for which the Bcl-2 level result is “almost undetectable”, the “Caspase 3 expression increase” value was above 5 fold, the “Caspase 8 expression increase” value was “about 20 fold” and the “Cyto c expression increase” value is given as “over 10 fold”. The SMAC/DIABLO expression result is “much higher” and the p53 expression increase entry is recorded as “over 12 fold”.
